{"source": "patent US20090087443A1", "about": "“Pharmacological Adjunctive Treatment Associated with Glaucoma Filtration Surgery” (priority 2007, published 2009)", "molecules": {"B1": {"name": "Prolactin: antagonist to at least one TGF-β isoform (protein, UniProt P01236 29-227, looked up)", "Prolactin": "LPICPGGAARCQVTLRDLFDRAVVLSHYIHNLSSEMFSEFDKRYTHGRGFITKAINSCHTSSLATPEDKEQAQQMNQKDFLSLIVSILRSWNEPLYHLVTEVRGMQEAPEAILSKAVEIEEQTKRLLEGMELIVSQVHPETKENEIYPVWSGLPSLQMADEESRLSAYYNLLHCLRRDSHKIDNYLKLLKCRIIHNNNC"}}, "key": {"[1]": {"system": "New Zealand White rabbits", "assay": "Slit-lamp ophthalmic observations (McDonald Shadduck scoring) in the rabbit topical IOP study", "format": "in vivo", "set-up": "key to Conjunctival Congestion Score, treated right eye: 1 = A flushed, reddish color predominantly confined to the palpebral conjunctiva with some perilimbal injection but primarily confined to the lower and upper parts of the eye from the 4:00 to 7:00 and 11:00 to 1:00 positions; key to Cornea Score, treated right eye: 1 = Some loss of transparency. Only the epithelium and/or the anterior half of the stoma are involved. The underlying structures are clearly visible although some cloudiness may be readily apparent; key to Ophthalmic Observation (Slit-Lamp), treated right eye, individual animals: AN = Appeared normal", "settings": "for Ophthalmic Observation (Slit-Lamp), treated right eye, individual animals: examination Days 5, 12, 22, 26, 33 as listed per animal (days without scored finding, until death)", "protocol": "Prior to placement on study, each animal underwent a pre-treatment ophthalmic examination (slit lamp and indirect ophthalmoscopy). Observations were scored according to the McDonald Shadduck system and recorded using a standardized data collection sheet.\nOphthalmic examinations (slit lamp) were performed prior to the first dosing on Days 5, 12, 22, 26, and 33. Ocular findings were scored according to the McDonald Shadduck system and recorded using a standardized data collection sheet."}, "[2]": {"system": "Human Tenon's fibroblasts", "assay": "TGF-β stimulated cellular levels of collagen type I, α-smooth muscle actin and tissue transglutaminase (Western blot)", "format": "cell-based", "settings": "TGF-β 5 ng/ml, 0.1, 1, 3, 5 or 10 μM, day 5, ratio to GAPDH", "protocol": "Methods: Human Tenon's fibroblasts were seeded in 60 mm plates in 10% FBS MEM (fetal bovine serum/Eagle's minimum essential medium) and grown until approximately 90% confluency. After the cells were starved in 0.5% FBS MEM for approximately 72 hours, the media was changed to fresh 0.5% FBS MEM. […] Cells were harvested 1, 3 or 5 days later. They were washed twice with cold 1× PBS and scraped into 1×SDS sample buffer. Lysates were assayed for protein content using the DC protein assay kit from Bio-Rad. Equal amounts of protein from each sample were electrophoresed on a 7.5% Tris-glycine SDS gel. Proteins were transferred to a PVDF membrane, blocked and probed with one or more of the following antibodies: mouse monoclonal anti-α-smooth muscle actin Clone 1A4: (Sigma Aldrich, #A2547), mouse monoclonal anti-human GAPDH (6C5) (Santa Cruz Biotechnology, Inc., #sc-32233), goat anti-human collagen α1Type I (L-19) (Santa Cruz Biotechnology, Inc., #sc-8783), or mouse monoclonal anti-transglutaminase II Ab-3 (ClonesCUB7402+TG100) (NeoMarkers, # MS-300-P). Density of each band was measured densitometrically and the ratio to GADPH calculated."}, "[3]": {"system": "New Zealand White rabbits", "assay": "Mortality/morbidity in the rabbit topical IOP study", "format": "in vivo", "settings": "for Mortality (number of animals found dead or euthanized prior to study completion/number of animals in group): right eye topical 4 × daily through Day 31, to Day 33"}, "[4]": {"system": "IL-1β-induced cytokine production in human corneal epithelial cells (HCECs)", "assay": "IL-1β-stimulated cytokine production in primary human corneal epithelial cells (30-cytokine Luminex kit)", "description": "Primary HCECs were seeded in 24-well plates. […] Each treatment was performed in triplicate. Media were collected and used for determination of cytokine content using a 30-cytokine Luminex kit. Cell viability was determined by alamarBlue assay (LP06013).\nMedian fluorescence intensity (MFI) was used to obtain the concentration of each cytokines in pg/ml based on the standard curve of each cytokine assayed by Luminex. The linear range of the standard curve for each cytokine was used for determination of cytokine concentration. Duplicate values for each sample were averaged. Data were expressed as mean±SD. Statistical analysis was performed using one-way ANOVA-Dunnett's test, and P<0.05 was considered statistically significant."}, "[5]": {"system": "neovascularization and angiogenesis in the rat cornea", "settings": "X. Xin et al., J. Biol. Chem. 274:9116-9121 (1999); cited from earlier work"}, "[6]": {"system": "fibroblasts", "settings": "cited from earlier work"}, "[7]": {"settings": "0.1% dexamethasone, 0.05 mg/dose 4 × daily (Group A)"}}, "note": "Where “and” joins values, the source holds several entries; their conditions need not be identical. Equal values may be shown once. Entries after “also recorded” stand apart in the source; their conditions may differ. Read-outs that look alike come from different tables or passages of the source.", "data": [{"molecule": "Cc1ccc2c(NCC(O)(CC(C)(C)c3cc(F)cc4c3OCC4)C(F)(F)F)cccc2n1", "note": "(stereo not shown)", "values": [{"measurement": "Conjunctival Congestion Score, treated right eye", "setting": "[1]; 1 mg/g suspension 4 × daily, animal No. 3040, Day 22", "result": 1}, {"measurement": "Ophthalmic Observation (Slit-Lamp), treated right eye, individual animals", "setting": "[1]; 1 mg/g suspension 4 × daily", "result": "AN"}, {"measurement": "Other slit-lamp finding in dosed right eye", "setting": "[1]; 1 mg/g suspension, Group D, No. 3043", "result": "subconjunctival hemorrhage"}, {"measurement": "Conjunctival Congestion Score, treated right eye", "setting": "[1]; 5 mg/g suspension 4 × daily, animal No. 3031, Day 22", "result": 1}, {"measurement": "Conjunctival Congestion Score, treated right eye", "setting": "[1]; 5 mg/g suspension 4 × daily, animal No. 3035, Days 22, 26", "result": 1}, {"measurement": "Conjunctival Congestion Score, treated right eye", "setting": "[1]; 5 mg/g suspension 4 × daily, animal No. 3064, Day 5", "result": 1}, {"measurement": "Conjunctival Congestion Score, treated right eye", "setting": "[1]; 5 mg/g suspension 4 × daily, animal No. 3074, Day 26", "result": 1}, {"measurement": "Ophthalmic Observation (Slit-Lamp), treated right eye, individual animals", "setting": "[1]; 5 mg/g suspension 4 × daily", "result": "AN"}, {"measurement": "Conjunctival Congestion Score, treated right eye", "setting": "[1]; 10 mg/g suspension 4 × daily, animal No. 3003, Day 12", "result": 1}, {"measurement": "Conjunctival Congestion Score, treated right eye", "setting": "[1]; 10 mg/g suspension 4 × daily, animal No. 3017, Days 5, 12", "result": 1}, {"measurement": "Conjunctival Congestion Score, treated right eye", "setting": "[1]; 10 mg/g suspension 4 × daily, animal No. 3042, Day 26", "result": 1}, {"measurement": "Surface area of cornea involvement Score, treated right eye", "setting": "[1]; 10 mg/g suspension 4 × daily, animal No. 3083, Day 5", "result": "1 (1 = 1-25% area of stromal cloudiness.)"}, {"measurement": "Cornea Score, treated right eye", "setting": "[1]; 10 mg/g suspension 4 × daily, animal No. 3083, Day 5, pinpoint corneal scar", "result": "1^(2)"}, {"measurement": "Ophthalmic Observation (Slit-Lamp), treated right eye, individual animals", "setting": "[1]; 10 mg/g suspension 4 × daily", "result": "AN"}, {"measurement": "Other slit-lamp finding in dosed right eye", "setting": "[1]; 10 mg/g suspension, Group B, No. 3083", "result": "pinpoint corneal scar"}, {"measurement": "Effect on TGF-β-induced cellular level of collagen type I", "setting": "[2]", "result": "inhibitory effect that appeared dose-related; also recorded: inhibit"}, {"measurement": "Effect on TGF-β-induced cellular level of tissue transglutaminase", "setting": "[2]", "result": "inhibitory effect that appeared dose-related; also recorded: inhibit"}, {"measurement": "Effect on TGF-β-induced cellular level of α-smooth muscle actin", "setting": "[2]", "result": "inhibitory effect that appeared dose-related; also recorded: inhibit"}, {"measurement": "Day of Death (day euthanized or found dead), individual rabbits", "setting": "[3]", "result": 29}, {"measurement": "Recorded Notes on mortality/morbidity, individual rabbits", "setting": "[3]; 1 mg/g suspension, 0.05 mg/dose 4 × daily (Group D)", "result": "Found dead."}, {"measurement": "Mortality (number of animals found dead or euthanized prior to study completion/number of animals in group)", "setting": "[3]; 1 mg/g suspension, 0.05 mg/dose", "result": "one of ten and 1/10^(6)"}, {"measurement": "Day of Death (day euthanized or found dead), individual rabbits", "setting": "[3]; 10 mg/g suspension, 0.5 mg/dose 4 × daily (Group B)", "result": 11}, {"measurement": "Mortality (number of animals found dead or euthanized prior to study completion/number of animals in group)", "setting": "[3]; 10 mg/g suspension, 0.5 mg/dose", "result": "one of ten and 1/10^(4)"}, {"measurement": "Potency relative to dexamethasone for inhibition of IL-1β-stimulated production of IL-6, IL-7, TGF-α, TNF-α, VGEF, and MCP-1", "setting": "[4]", "result": "comparable potency"}, {"measurement": "Potency relative to dexamethasone in inhibiting IL-1β-stimulated production of G-CSF", "setting": "[4]", "result": "more potent than dexamethasone"}, {"measurement": "Potency relative to dexamethasone in inhibiting IL-1β-stimulated production of GM-CSF, IL-8, and RANTES", "setting": "[4]", "result": "somewhat less potent than dexamethasone"}, {"measurement": "Effect on IL-1β-stimulated RANTES production", "setting": "[4]; 1 nM-10 μM, IL-1β 10 ng/ml, 18 h", "result": "no significant effect"}]}, {"molecule": "CCCCCC=CC=C1C(=O)C=C[C@@H]1CC=CCCCC(=O)O", "note": "[15-deoxy-Δ-12,14-prostaglandin J2]", "values": [{"measurement": "Effect on neovascularization and angiogenesis in the rat cornea", "setting": "[5]", "result": "inhibit"}]}, {"molecule": "C[C@@H]1C[C@H]2[C@@H]3CCC4=CC(=O)C=C[C@]4(C)[C@@]3(F)[C@@H](O)C[C@]2(C)[C@@]1(O)C(=O)CO", "note": "[dexamethasone, reference compound]", "values": [{"measurement": "Conjunctival Congestion Score, treated right eye", "setting": "[1]; 0.1% dexamethasone 4 × daily, animal No. 3016, Day 5", "result": 1}, {"measurement": "Conjunctival Congestion Score, treated right eye", "setting": "[1]; 0.1% dexamethasone 4 × daily, animal No. 3081, Day 22", "result": 1}, {"measurement": "Ophthalmic Observation (Slit-Lamp), treated right eye, individual animals", "setting": "[1]; 0.1% dexamethasone 4 × daily", "result": "AN"}, {"measurement": "Mortality (number of animals found dead or euthanized prior to study completion/number of animals in group)", "setting": "[3]; 0.1% dexamethasone (Maxidex), 0.05 mg/dose", "result": "Six of ten"}, {"measurement": "Mortality (number of animals found dead or euthanized prior to study completion/number of animals in group)", "setting": "[3]; 0.1% dexamethasone (Maxidex), 0.05 mg/dose, listed as Dexamethasone", "result": "6/10^(3)"}, {"measurement": "Day of Death (day euthanized or found dead), individual rabbits", "setting": "[3]; [7]", "result": "25 (2×) and 27 (2×) and 23 and 13"}, {"measurement": "Recorded Notes on mortality/morbidity, individual rabbits", "setting": "[3]; [7]", "result": "Euthanized due to severe profuse hemorrhagic diarrhea; also recorded: Found dead. No rigor mortis present"}, {"measurement": "Mortality rate", "setting": "[3]; dexamethasone 0.05 mg/dose 4 × daily up to 31 days", "result": 6, "unit": "deaths per 10 rabbits"}]}, {"molecule": "B1", "values": [{"measurement": "Effect on the chemotaxis of fibroblasts", "setting": "[6]", "result": "inhibit"}]}]}
